Reference: patent publication US6437184B1, “Oxime compounds, their use, and intermediates for their production” (Sumitomo Chemical Company, Limited, priority 1997, dated 2002)

Legend:
Assay type in all cases: in vivo
Spodoptera litura = experiment: Insecticidal test against Spodoptera litura; conditions: 144 h, 500 ppm water dilution, 2 ml absorbed in 13 g artificial diet, fourth-instar larvae, after 6 days
Experimental: A 200-fold water dilution (500 ppm) of a test compound formulation obtained according to Formulation Example 1 or 2 was absorbed at a volume of 2 ml in an artificial diet (Insecta LF available from Nihon Nosan K.K.) having a weight of 13 g, which had been prepared in a polyethylene cup having a diameter of 11 cm. Five fourth-instar larvae of Spodoptera litura were set free in the cup. After 6 days, the survival of the larvae was examined to determine the mortality.

Plutella xylostella = experiment: Insecticidal test against Plutella xylostella; conditions: 96 h, 50 ppm water dilution sprayed over potted cabbages, 25 ml per pot, third-instar larvae, after 4 days, read-out: mortality
Method in brief: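 Potted cabbages at four-to-five leaf stage sprayed with 50 ppm compound formulation plus spreading agent at 3000-fold dilution, air-dried, then infested with ten third-instar larvae per pot. Mortality determined after 4 days.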

Helicoverpa armigera = experiment: Insecticidal test against Helicoverpa armigera; conditions: 120 h, 100 ppm water dilution, cotton leaf fragment immersed 10 seconds, third-instar larvae, after 5 days
Method in brief: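 Cotton leaf discs (5 cm) were dipped 10 s in a 100 ppm aqueous dilution of formulated compound, air-dried, and each was given one third-instar larva. Ten larvae per treatment; mortality was scored after 5 days.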

Tetranychus urticae = experiment: Acaricidal test against Tetranychus urticae; design: key: −: almost no damage and completely no surviving mites; ±: slight damage and some few surviving mites; +: rather smaller damage and a rather fewer surviving mites than non-treatment case; ++: same as non-treatment case; conditions: 500 ppm water dilution, 15 ml sprayed over brush bean with female adults set free 6 days before; after 8 days
Experimental: About twenty female adults of Tetranychus urticae were set free on brush bean (Phaseolus vulgaris) in the primary leaf stage, which had been potted in a plastic cup for 7 days after the seeding. After 6 days, a 200-fold water dilution (500 ppm) of a test compound formulation obtained according to Formulation Example 1 or 2 was sprayed at a volume of 15 ml over the plant. After 8 days, each compound was evaluated for acaricidal activity on the following criteria.
−: almost no damage and completely no surviving mites
±: slight damage and some few surviving mites
+: rather smaller damage and a rather fewer surviving mites than non-treatment case
++: same as non-treatment case

Musca domestica = experiment: Insecticidal test against Musca domestica; conditions: 24 h, 500 ppm water dilution, 0.7 ml on filter paper with sucrose, female adults, after 1 day, read-out: mortality
Method in brief: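 Filter paper treated with 500 ppm water dilution of formulated compound, with sucrose as diet; ten female adult houseflies confined in covered cup. Mortality determined from adult survival after 1 day.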

Heliothis virescens = experiment: Insecticidal test against Heliothis virescens; conditions: 168 h, 100 ppm water dilution, 0.2 ml on surface of artificial diet, second-instar larvae, after 7 days
Experimental: A water dilution (100 ppm) of a test compound formulation obtained according to Formulation Example 1 was added dropwise at a volume of 0.2 ml and uniformly spread over the surface of an artificial diet having a weight of 3 g, which had been prepared in a 30 ml plastic cup. After air drying, one second-instar larva of Heliothis virescens was set free in each cup. Ten larvae were used for each treatment. After 7 days, the mortality of the larvae was determined.

SMILES	mortality at 500 µg/mL (Spodoptera litura) [%]	mortality at 50 µg/mL (Plutella xylostella) [%]	mortality at 100 µg/mL (Helicoverpa armigera) [%]	acaricidal activity (Tetranychus urticae)	mortality at 500 µg/mL (Musca domestica) [%]	mortality at 100 µg/mL (Heliothis virescens) [%]
CCON=C(C)COc1ccc(OCC=CCl)cc1 [(A), 4-(3-chloro-2-propenyloxy)phenoxyacetone O-ethyloxime, reference compound]	0	0	0	+	0	–
CC(COCCCCCOc1c(Cl)cc(OCC=C(Cl)Cl)cc1Cl)=NOC(C)(C)C [(104), 5-(2,6-dichloro-4-(3,3-dichloro-2-propenyloxy)phenoxy)pentyloxyacetone O-tert-butyloxime]	≥ 80	≥ 80	≥ 80	“−” or “±”	–	≥ 80
CC(C)CCON=Cc1ccc(Oc2ccccc2)cc1 [(B), 4-phenoxy-benzaldehyde O-(3-methylbutyl)oxime, reference compound]	0	–	–	+	0	–
